Where two headings read alike, the source gives them in different places.

Here are results for 17 compounds from patent publication US12496348B2, “Small molecule target bromo/acetyl proteins and uses thereof” (DANA-FARBER CANCER INSTITUTE, INC., priority 2019, dated 2025).

Common to all, as to assay type: cell-based
Assay [1] relates to Kelly Neuroblastoma cells. Nature of the assay: ATPlite Luminescence viability assay, Kelly neuroblastoma cells, 72 h. Conditions: for IC50: Kelly Neuroblastoma cells, ATPlite. How it is done:
Kelly Neuroblastoma cells were seeded at 1,000 cells per well in 384 well, white plates and were treated in a dose-dependent manner for 72 h.
On the technique in general: ATP-based viability assays read luminescence as a measure of living cells.

The next assay addresses EP300 (Homo sapiens (Human), UniProt Q09472). Nature of the assay: Western blot for EP300 degradation in Kelly NB cells. As to conditions: 24 hours, at 10 μM. How it is done:
(§1) […] Whole cell lysates were collected using ice cold lysis buffer [300 mM NaCl, 50 mM Tris-HCl, pH 7.5, 0.5% Triton X-100, 1% sodium dodecyl sulfate (SDS), 1 mM dithiothreitol (DTT) (Invitrogen™), Roche®'s cOmplete™ protease inhibitor cocktail (1:000), 25 units/mL Benzonase®] and blotted at a protein concentration of 30 μg for EP300 and CBP and 10 μg for histone H3 and H3K27ac. Lysates were also blotted for bromodomain-containing protein 4 (BRD4). Lysates were resolved in NuPAGE™ 3-8% Tris-Acetate polyacrylamide gels (EA03785BOX, Invitrogen™) for EP300 and CBP and Bolt 4-12% Bis-Tris polyacrylamide gels (NW04125BOX, Invitrogen™) for H3 and H3K27ac. Afterwards, gels were transferred to nitrocellulose membranes (LC2001, Invitrogen™). […] Visualization was performed on an Odyssey infrared imaging system (LiCor® Biosciences).

Another assay concerns the target CBP (Homo sapiens (Human), UniProt Q92793). Nature of the assay: Western blot for CBP degradation in Kelly NB cells. As to conditions: 24 hours, at 10 μM. Here is the method:
as §1
(A western blot detects proteins with antibodies after separation by electrophoresis.)

[2] abbreviates: class symbols, read-out: IC50 of inventive bispecific compounds.

Chain of CBP (Q92793 whole entry): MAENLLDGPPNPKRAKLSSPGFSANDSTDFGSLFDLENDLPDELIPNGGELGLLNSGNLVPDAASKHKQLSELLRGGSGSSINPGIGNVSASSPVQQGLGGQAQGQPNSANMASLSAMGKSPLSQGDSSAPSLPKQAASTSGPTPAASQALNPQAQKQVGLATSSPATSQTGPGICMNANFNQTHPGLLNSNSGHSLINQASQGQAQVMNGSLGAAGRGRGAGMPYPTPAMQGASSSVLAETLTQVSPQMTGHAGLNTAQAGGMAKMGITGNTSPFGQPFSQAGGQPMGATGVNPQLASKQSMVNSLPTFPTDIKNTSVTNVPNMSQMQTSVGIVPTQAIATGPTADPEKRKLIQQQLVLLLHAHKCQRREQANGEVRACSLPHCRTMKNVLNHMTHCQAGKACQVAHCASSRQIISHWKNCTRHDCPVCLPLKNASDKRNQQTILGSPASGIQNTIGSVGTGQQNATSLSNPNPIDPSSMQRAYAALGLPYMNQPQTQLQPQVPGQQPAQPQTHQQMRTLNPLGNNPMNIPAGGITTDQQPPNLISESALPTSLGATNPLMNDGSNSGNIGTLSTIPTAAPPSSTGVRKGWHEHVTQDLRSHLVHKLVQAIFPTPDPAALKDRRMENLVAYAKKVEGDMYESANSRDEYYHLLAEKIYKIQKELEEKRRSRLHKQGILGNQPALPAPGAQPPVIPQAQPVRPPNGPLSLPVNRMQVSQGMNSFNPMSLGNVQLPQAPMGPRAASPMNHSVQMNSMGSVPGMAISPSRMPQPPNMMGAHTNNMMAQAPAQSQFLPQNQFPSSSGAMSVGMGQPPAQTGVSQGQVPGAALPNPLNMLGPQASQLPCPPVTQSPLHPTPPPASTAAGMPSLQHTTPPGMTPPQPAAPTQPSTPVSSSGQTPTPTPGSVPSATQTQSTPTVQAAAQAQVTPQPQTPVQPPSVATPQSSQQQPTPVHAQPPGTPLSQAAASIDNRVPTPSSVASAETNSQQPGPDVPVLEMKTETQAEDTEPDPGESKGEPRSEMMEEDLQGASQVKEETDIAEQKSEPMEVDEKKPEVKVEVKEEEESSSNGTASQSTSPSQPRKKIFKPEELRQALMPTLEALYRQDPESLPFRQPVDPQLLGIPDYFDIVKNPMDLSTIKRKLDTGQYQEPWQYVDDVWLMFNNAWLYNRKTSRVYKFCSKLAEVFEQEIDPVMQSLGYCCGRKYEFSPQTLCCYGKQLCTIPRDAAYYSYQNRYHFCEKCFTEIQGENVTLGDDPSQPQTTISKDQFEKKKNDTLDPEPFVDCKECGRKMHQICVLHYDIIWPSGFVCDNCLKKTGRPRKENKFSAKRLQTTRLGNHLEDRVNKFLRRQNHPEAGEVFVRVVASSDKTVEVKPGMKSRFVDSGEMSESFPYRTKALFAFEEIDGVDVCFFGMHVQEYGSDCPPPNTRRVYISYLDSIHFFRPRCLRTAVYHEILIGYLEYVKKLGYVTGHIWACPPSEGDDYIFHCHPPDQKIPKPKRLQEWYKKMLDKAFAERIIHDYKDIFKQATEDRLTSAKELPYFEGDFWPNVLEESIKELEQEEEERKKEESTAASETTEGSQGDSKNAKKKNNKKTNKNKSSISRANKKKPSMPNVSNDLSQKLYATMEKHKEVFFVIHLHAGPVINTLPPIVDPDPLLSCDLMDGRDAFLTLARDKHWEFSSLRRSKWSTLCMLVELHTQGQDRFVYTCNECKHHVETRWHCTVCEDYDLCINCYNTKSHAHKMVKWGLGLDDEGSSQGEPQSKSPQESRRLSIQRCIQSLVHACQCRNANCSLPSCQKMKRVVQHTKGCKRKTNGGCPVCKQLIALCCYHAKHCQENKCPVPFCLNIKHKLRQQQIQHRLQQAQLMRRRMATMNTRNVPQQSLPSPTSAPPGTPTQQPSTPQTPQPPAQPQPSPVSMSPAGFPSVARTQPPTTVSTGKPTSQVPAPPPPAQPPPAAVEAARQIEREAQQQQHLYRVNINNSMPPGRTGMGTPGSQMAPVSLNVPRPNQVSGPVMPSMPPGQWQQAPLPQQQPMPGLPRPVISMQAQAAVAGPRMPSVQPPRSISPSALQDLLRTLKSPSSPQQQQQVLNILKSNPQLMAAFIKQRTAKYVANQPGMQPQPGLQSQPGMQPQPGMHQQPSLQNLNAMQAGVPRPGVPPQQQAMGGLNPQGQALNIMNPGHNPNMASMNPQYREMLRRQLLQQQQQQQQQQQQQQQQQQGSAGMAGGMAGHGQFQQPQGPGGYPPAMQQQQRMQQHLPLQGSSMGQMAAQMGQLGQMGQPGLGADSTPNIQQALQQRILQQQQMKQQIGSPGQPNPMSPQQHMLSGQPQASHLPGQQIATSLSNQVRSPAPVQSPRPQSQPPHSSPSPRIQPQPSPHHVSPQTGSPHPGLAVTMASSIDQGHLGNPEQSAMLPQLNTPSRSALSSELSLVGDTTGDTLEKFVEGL
Chain of EP300 (Q09472 whole entry): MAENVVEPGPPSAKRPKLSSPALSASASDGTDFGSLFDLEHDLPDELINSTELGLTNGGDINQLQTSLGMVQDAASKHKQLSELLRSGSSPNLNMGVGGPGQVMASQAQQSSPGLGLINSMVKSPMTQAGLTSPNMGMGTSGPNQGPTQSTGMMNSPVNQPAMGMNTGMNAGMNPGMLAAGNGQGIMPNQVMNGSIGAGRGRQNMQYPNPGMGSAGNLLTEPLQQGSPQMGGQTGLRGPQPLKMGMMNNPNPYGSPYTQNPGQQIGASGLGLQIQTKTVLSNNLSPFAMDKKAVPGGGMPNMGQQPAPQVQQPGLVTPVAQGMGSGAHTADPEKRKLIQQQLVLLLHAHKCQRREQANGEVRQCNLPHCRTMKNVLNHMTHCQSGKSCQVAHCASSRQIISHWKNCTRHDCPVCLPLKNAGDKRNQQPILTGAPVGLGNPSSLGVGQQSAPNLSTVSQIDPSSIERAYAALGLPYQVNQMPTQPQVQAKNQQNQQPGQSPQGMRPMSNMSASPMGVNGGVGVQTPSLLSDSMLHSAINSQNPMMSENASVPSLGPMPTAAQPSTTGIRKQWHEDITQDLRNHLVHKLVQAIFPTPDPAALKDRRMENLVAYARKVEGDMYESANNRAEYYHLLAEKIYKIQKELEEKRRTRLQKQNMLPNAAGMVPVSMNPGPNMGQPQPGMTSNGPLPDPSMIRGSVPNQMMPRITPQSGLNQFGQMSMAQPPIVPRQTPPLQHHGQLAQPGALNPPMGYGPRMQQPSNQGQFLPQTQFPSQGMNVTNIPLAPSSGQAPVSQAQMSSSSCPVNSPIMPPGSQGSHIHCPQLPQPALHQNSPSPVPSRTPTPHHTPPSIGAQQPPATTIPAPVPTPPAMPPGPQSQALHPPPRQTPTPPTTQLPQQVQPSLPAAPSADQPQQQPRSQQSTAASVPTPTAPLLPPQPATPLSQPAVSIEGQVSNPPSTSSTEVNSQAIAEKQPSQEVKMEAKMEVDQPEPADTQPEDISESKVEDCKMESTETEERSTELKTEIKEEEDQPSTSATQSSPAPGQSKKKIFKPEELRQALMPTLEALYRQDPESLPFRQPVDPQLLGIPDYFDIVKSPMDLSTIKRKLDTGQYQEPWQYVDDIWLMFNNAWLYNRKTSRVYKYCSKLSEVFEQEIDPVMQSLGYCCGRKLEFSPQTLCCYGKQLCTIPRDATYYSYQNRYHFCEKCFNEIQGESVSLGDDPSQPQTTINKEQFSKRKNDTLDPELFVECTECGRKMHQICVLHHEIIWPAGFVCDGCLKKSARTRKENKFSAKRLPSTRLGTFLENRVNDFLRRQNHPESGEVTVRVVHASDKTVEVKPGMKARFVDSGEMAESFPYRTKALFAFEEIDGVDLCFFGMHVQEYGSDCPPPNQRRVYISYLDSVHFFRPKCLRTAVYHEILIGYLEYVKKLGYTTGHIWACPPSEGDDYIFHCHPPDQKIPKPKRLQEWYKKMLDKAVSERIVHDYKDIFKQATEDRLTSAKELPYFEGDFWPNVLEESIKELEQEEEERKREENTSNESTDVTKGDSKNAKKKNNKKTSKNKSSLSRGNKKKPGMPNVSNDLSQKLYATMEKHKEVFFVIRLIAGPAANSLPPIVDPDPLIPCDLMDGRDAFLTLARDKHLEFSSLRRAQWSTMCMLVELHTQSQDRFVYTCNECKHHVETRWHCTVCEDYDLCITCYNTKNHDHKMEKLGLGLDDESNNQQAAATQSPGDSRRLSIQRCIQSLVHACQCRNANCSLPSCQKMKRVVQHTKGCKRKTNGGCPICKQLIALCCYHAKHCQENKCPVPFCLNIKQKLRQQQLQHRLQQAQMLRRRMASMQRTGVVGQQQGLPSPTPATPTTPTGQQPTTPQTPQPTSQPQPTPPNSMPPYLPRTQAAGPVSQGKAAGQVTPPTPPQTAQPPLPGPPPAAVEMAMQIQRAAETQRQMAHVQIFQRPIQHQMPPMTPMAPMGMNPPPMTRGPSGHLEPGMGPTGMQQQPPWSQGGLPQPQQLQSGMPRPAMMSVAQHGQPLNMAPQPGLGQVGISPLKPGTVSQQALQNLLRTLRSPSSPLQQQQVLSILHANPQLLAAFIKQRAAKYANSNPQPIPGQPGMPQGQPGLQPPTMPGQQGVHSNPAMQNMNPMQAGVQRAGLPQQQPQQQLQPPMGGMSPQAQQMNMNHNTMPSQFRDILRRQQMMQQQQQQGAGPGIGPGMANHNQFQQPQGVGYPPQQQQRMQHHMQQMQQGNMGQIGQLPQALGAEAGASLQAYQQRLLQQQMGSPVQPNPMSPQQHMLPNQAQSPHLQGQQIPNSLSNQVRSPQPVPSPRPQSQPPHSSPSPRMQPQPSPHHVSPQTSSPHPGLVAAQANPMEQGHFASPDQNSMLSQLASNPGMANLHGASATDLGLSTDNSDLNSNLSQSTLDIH

Turning to `Cc1noc(C)c1-c1ccc2nc(-c3ccc(N4CCN(C(=O)CCOCCOCCOCCOCCOCCOCCNc5cccc6c5C(=O)N(C5CCC(=O)NC5=O)C6=O)CC4)cc3)c(NC3CCCCC3)n2c1` (stereo not drawn) [Compound 3, 4-((21-(4-(4-(3-(cyclohexylamino)-6-(3,5-dimethylisoxazol-4-yl)imidazo[1,2-a]pyridin-2-yl)phenyl)piperazin-1-yl)-21-oxo-3,6,9,12,15,18-hexaoxahenicosyl)amino)-2-(2,6-dioxopiperidin-3-yl)isoindoline-1,3-dione], the “IC50 values (range in words)” value in assay [1] (Kelly Neuroblastoma cell proliferation) was “micromolar and sub-micromolar range”. Also, the half-inhibitory concentration (IC50) (commonly the concentration needed to halve the response being measured) in assay [1] (setting [2]) was 0.1 to 1 µM; in assay [1] (read-out: IC50), 0.706 µM. Moreover, the “P300 degradation (immunoblot)” value at EP300 is reported as “some degradation”. Besides, at CBP, the “CBP degradation (immunoblot)” value is listed as “some degradation”. In the case of `Cc1ncsc1-c1ccc(CNC(=O)[C@H]2C[C@H](O)CN2C(=O)[C@H](NC(=O)COCCOCCOCCNC(=O)CCC(=O)Nc2ccc(CCc3nc4cc(-c5c(C)noc5C)ccn4c3NC3CCCCC3)cc2)C(C)(C)C)cc1` [Compound 15, N1-(4-(2-(3-(cyclohexylamino)-7-(3,5-dimethylisoxazol-4-yl)imidazo[1,2-a]pyridin-2-yl)ethyl)phenyl)-N4-((R)-13-((2R,4S)-4-hydroxy-2-((4-(4-methylthiazol-5-yl)benzyl)carbamoyl)pyrrolidine-1-carbonyl)-14,14-dimethyl-11-oxo-3,6,9-trioxa-12-azapentadecyl)succinamide], the IC50 in assay [1] (setting [2]) is over 10 µM. Still for that read-out and setting: then `Cc1noc(C)c1-c1ccn2c(NC3CCCCC3)c(CCc3ccc(NC(=O)CCOCCOCCOCCOCCOCCOCCNc4cccc5c4C(=O)N(C4CCC(=O)NC4=O)C5=O)cc3)nc2c1` (stereo not drawn) [Compound 16, N-(4-(2-(3-(cyclohexylamino)-7-(3,5-dimethylisoxazol-4-yl)imidazo[1,2-a]pyridin-2-yl)ethyl)phenyl)-1-((2-(2,6-dioxopiperidin-3-yl)-1,3-dioxoisoindolin-4-yl)amino)-3,6,9,12,15,18-hexaoxahenicosan-21-amide], with 1 to 10 µM; and `Cc1noc(C)c1-c1ccn2c(NC3CCCCC3)c(CCc3ccc(NC(=O)C4CCC(Nc5cccc6c5C(=O)N(C5CCC(=O)NC5=O)C6=O)CC4)cc3)nc2c1` (stereo not drawn) [Compound 17, N-(4-(2-(3-(cyclohexylamino)-7-(3,5-dimethylisoxazol-4-yl)imidazo[1,2-a]pyridin-2-yl)ethyl)phenyl)-4-((2-(2,6-dioxopiperidin-3-yl)-1,3-dioxoisoindolin-4-yl)amino)cyclohexane-1-carboxamide], with 1 to 10 µM. As to `Cc1noc(C)c1-c1ccn2c(NC3CCCCC3)c(CCc3ccc(NC(=O)c4ccc(CNc5cccc6c5C(=O)N(C5CCC(=O)NC5=O)C6=O)cc4)cc3)nc2c1` (stereo not drawn) [Compound 18, N-(4-(2-(3-(cyclohexylamino)-7-(3,5-dimethylisoxazol-4-yl)imidazo[1,2-a]pyridin-2-yl)ethyl)phenyl)-4-(((2-(2,6-dioxopiperidin-3-yl)-1,3-dioxoisoindolin-4-yl)amino)methyl)benzamide], the IC50 in assay [1] (setting [2]) is over 10 µM.

As to `COc1ccc(CCc2nc3cc(-c4c(C)noc4C)ccc3n2C[C@H](C)N2CCN(C(=O)CCOCCOCCOCCNc3ccc4c(c3)C(=O)N(C3CCC(=O)NC3=O)C4=O)CC2)cc1Cl` (stereo partly drawn) [Compound 19, 5-((2-(2-(2-(3-(4-((S)-1-(2-(3-chloro-4-methoxyphenethyl)-5-(3,5-dimethylisoxazol-4-yl)-1H-benzo[d]imidazol-1-yl)propan-2-yl)piperazin-1-yl)-3-oxopropoxy)ethoxy)ethoxy)ethyl)amino)-2-(2,6-dioxopiperidin-3-yl)isoindoline-1,3-dione], the IC50 in assay [1] (setting [2]) was over 10 µM.

Turning to `COc1ccc(CCc2nc3cc(-c4c(C)noc4C)ccc3n2C[C@H](C)N2CCN(C(=O)CCCCCCCCCNc3ccc4c(c3)C(=O)N(C3CCC(=O)NC3=O)C4=O)CC2)cc1Cl` (stereo partly drawn) [Compound 20, 5-((10-(4-((S)-1-(2-(3-chloro-4-methoxyphenethyl)-5-(3,5-dimethylisoxazol-4-yl)-1H-benzo[d]imidazol-1-yl)propan-2-yl)piperazin-1-yl)-10-oxodecyl)amino)-2-(2,6-dioxopiperidin-3-yl)isoindoline-1,3-dione], the IC50 in assay [1] (setting [2]) was over 10 µM. `COc1ccc(CCc2nc3cc(-c4c(C)noc4C)ccc3n2C[C@H](C)N2CCN(C(=O)CCCCCNc3ccc4c(c3)C(=O)N(C3CCC(=O)NC3=O)C4=O)CC2)cc1Cl` (stereo partly drawn) [Compound 21, 5-((6-(4-((S)-1-(2-(3-chloro-4-methoxyphenethyl)-5-(3,5-dimethylisoxazol-4-yl)-1H-benzo[d]imidazol-1-yl)propan-2-yl)piperazin-1-yl)-6-oxohexyl)amino)-2-(2,6-dioxopiperidin-3-yl)isoindoline-1,3-dione]: the IC50 in assay [1] (setting [2]) was over 10 µM. Same read-out and setting: then `Cc1noc(C)c1-c1ccc2c(c1)nc(CCc1ccc(NC(=O)CCOCCOCCOCCNc3cccc4c3C(=O)N(C3CCC(=O)NC3=O)C4=O)cc1)n2CCN1CCOCC1` (stereo not drawn) [Compound 22, N-(4-(2-(5-(3,5-dimethylisoxazol-4-yl)-1-(2-morpholinoethyl)-1H-benzo[d]imidazol-2-yl)ethyl)phenyl)-3-(2-(2-(2-((2-(2,6-dioxopiperidin-3-yl)-1,3-dioxoisoindolin-4-yl)amino)ethoxy)ethoxy)ethoxy)propanamide], with over 10 µM; and `Cc1noc(C)c1-c1ccc2c(c1)nc(CCc1ccc(NC(=O)CCCCCCCCCCCNc3cccc4c3C(=O)N(C3CCC(=O)NC3=O)C4=O)cc1)n2CCN1CCOCC1` (stereo not drawn) [Compound 23, N-(4-(2-(5-(3,5-dimethylisoxazol-4-yl)-1-(2-morpholinoethyl)-1H-benzo[d]imidazol-2-yl)ethyl)phenyl)-12-((2-(2,6-dioxopiperidin-3-yl)-1,3-dioxoisoindolin-4-yl)amino)dodecanamide], with over 10 µM; and `Cc1noc(C)c1-c1ccc2c(c1)nc(CCc1ccc(NC(=O)CCCCCCCCCCCNC(=O)COc3cccc4c3C(=O)N(C3CCC(=O)NC3=O)C4=O)cc1)n2CCN1CCOCC1` (stereo not drawn) [Compound 24, N-(4-(2-(5-(3,5-dimethylisoxazol-4-yl)-1-(2-morpholinoethyl)-1H-benzo[d]imidazol-2-yl)ethyl)phenyl)-12-(2-((2-(2,6-dioxopiperidin-3-yl)-1,3-dioxoisoindolin-4-yl)oxy)acetamido)dodecanamide], with over 10 µM.

As for `Cc1noc(C)c1-c1ccc2c(c1)nc(CCc1ccc(NC(=O)CCCCCNc3cccc4c3C(=O)N(C3CCC(=O)NC3=O)C4=O)cc1)n2CC(C)N1CCOCC1` (stereo not drawn) [Compound 25, N-(4-(2-(5-(3,5-dimethylisoxazol-4-yl)-1-(2-morpholinopropyl)-1H-benzo[d]imidazol-2-yl)ethyl)phenyl)-6-((2-(2,6-dioxopiperidin-3-yl)-1,3-dioxoisoindolin-4-yl)amino)hexanamide], in assay [1] (setting [2]), the concentration for half-maximal inhibition (IC50) was over 10 µM. `Cc1noc(C)c1-c1ccc2c(c1)nc(CCc1ccc(NC(=O)CCCCCCCNc3cccc4c3C(=O)N(C3CCC(=O)NC3=O)C4=O)cc1)n2CC(C)N1CCOCC1` (stereo not drawn) [Compound 26, N-(4-(2-(5-(3,5-dimethylisoxazol-4-yl)-1-(2-morpholinopropyl)-1H-benzo[d]imidazol-2-yl)ethyl)phenyl)-8-((2-(2,6-dioxopiperidin-3-yl)-1,3-dioxoisoindolin-4-yl)amino)octanamide]: the half-inhibitory concentration (IC50) in assay [1] (setting [2]) is over 10 µM. `Cc1noc(C)c1-c1ccc2c(c1)nc(CCc1ccc(NC(=O)CCOCCOCCOCCNc3cccc4c3C(=O)N(C3CCC(=O)NC3=O)C4=O)cc1)n2CC(C)N1CCOCC1` (stereo not drawn) [Compound 27, N-(4-(2-(5-(3,5-dimethylisoxazol-4-yl)-1-(2-morpholinopropyl)-1H-benzo[d]imidazol-2-yl)ethyl)phenyl)-3-(2-(2-(2-((2-(2,6-dioxopiperidin-3-yl)-1,3-dioxoisoindolin-4-yl)amino)ethoxy)ethoxy)ethoxy)propanamide]: the IC50 in assay [1] (setting [2]) is over 10 µM. In the case of `Cc1noc(C)c1-c1ccc2c(c1)nc(CCc1ccc(NCCNC(=O)CCCCCNc3cccc4c3C(=O)N(C3CCC(=O)NC3=O)C4=O)cc1)n2CC(C)N1CCOCC1` (stereo not drawn) [Compound 28, N-(2-((4-(2-(5-(3,5-dimethylisoxazol-4-yl)-1-(2-morpholinopropyl)-1H-benzo[d]imidazol-2-yl)ethyl)phenyl)amino)ethyl)-6-((2-(2,6-dioxopiperidin-3-yl)-1,3-dioxoisoindolin-4-yl)amino)hexanamide], the half-maximal inhibitory concentration (IC50) in assay [1] (setting [2]) was over 10 µM. In the case of `Cc1noc(C)c1-c1ccc2c(c1)nc([C@@H]1CCCC(=O)N1c1ccc(F)c(F)c1)n2[C@H]1CC[C@H](NC(=O)CCCCCCCCCNc2cccc3c2C(=O)N(C2CCC(=O)NC2=O)C3=O)CC1` (stereo partly drawn) [Compound 29, N-((1S,4r)-4-(2-((S)-1-(3,4-difluorophenyl)-6-oxopiperidin-2-yl)-5-(3,5-dimethylisoxazol-4-yl)-1H-benzo[d]imidazol-1-yl)cyclohexyl)-10-((2-(2,6-dioxopiperidin-3-yl)-1,3-dioxoisoindolin-4-yl)amino)decanamide], the IC50 in assay [1] (setting [2]) is under 0.1 µM. In the case of `Cc1noc(C)c1-c1ccc2c(c1)nc([C@@H]1CCCC(=O)N1c1ccc(F)c(F)c1)n2[C@H]1CC[C@H](NC(=O)CCCCCNc2cccc3c2C(=O)N(C2CCC(=O)NC2=O)C3=O)CC1` (stereo partly drawn) [Compound 30, N-((1S,4r)-4-(2-((S)-1-(3,4-difluorophenyl)-6-oxopiperidin-2-yl)-5-(3,5-dimethylisoxazol-4-yl)-1H-benzo[d]imidazol-1-yl)cyclohexyl)-6-((2-(2,6-dioxopiperidin-3-yl)-1,3-dioxoisoindolin-4-yl)amino)hexanamide], the IC50 in assay [1] (setting [2]) was in the range of 0.1 to 1 µM.
